The values below come from patent US7956069B2, “Compounds” (AstraZeneca AB, priority 2006, dated 2011).

The assay deals with T1, cloned human M4 receptor (Homo sapiens, UniProt P08173).
T1 construct: purchased Perkin-Elmer RBHM4M; host or cells: Chinese hamster ovary cells (CHO)
T1 sequence (P08173 1-479): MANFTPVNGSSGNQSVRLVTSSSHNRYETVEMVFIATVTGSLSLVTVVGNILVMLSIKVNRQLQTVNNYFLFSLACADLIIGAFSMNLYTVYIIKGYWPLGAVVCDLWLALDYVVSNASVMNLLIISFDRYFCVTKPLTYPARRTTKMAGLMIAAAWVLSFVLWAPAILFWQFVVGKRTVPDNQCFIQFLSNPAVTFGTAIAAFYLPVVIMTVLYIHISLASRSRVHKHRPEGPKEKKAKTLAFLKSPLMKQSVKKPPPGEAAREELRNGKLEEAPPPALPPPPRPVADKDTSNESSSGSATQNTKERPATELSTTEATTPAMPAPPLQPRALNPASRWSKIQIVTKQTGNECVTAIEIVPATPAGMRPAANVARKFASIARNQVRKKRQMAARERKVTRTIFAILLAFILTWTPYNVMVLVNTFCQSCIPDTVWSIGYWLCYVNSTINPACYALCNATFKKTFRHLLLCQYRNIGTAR
Kind of assay: hM4 receptor GTPγS binding. The class given is biochemical. The conditions noted are these: CHO membranes, [35S]GTPγS binding. On the procedure: HM4 Receptor GTPγS Binding
Membranes produced from Chinese hamster ovary cells (CHO) expressing the cloned human M4 receptor (human Muscarinic receptor subtype 4, gene bank access NM_000741), were obtained from Perkin-Elmer (RBHM4M). The membranes were thawed at 37° C., passed 3 times through a 23-gauge blunt-end needle, diluted in the GTPγS binding buffer (50 mM Hepes, 20 mM NaOH, 100 mM NaCl, 1 mM EDTA, 5 mM MgCl2, pH 7.4, 100 μM DTT). The EC50, IC50 and Emax of the compounds of the invention were evaluated from 10-point dose-response curves (three fold concentration range) done in 60 μl in 384-well non-specific binding surface plate (Corning). Ten microliters from the dose-response curves plate (5× concentration) were transferred to another 384 well plate containing the following: 10 μg of hM4 membranes, 500 μg of Flashblue beads (Perkin-Elmer) and GDP in a 25 μl volume. An additional 15 μl containing 3.3× (55000 dpm) of GTPγ^35S (0.4 nM final) were added to the wells resulting in a total well volume of 50 μl. Basal and maximal stimulated [^35S]GTPγS binding were determined in absence and presence of 30 μM of acetylcholine agonist. The membranes/beads mix were pre-incubated for 15 minutes at room temperature with 40 μM GDP prior to distribution in plates (20 μM final). The reversal of acetylcholine-induced stimulation (10 μM final) of [^35S]GTPγS binding was used to assay the antagonist properties (IC50) of the compounds. The plates were incubated for 60 minutes at room temperature with shaking, then centrifuged at 2000 rpm for 5 minutes. The radioactivity (cpm) were counted in a Trilux (Perkin-Elmer).
Values of EC50, IC50 and Emax were obtained using sigmoidal fits of a non-linear curve-fitting program (XLfit version 5.0.6 from ID Business Solutions Limited, Guildford, UK) of percent stimulated [^35S]GTPγS binding vs. log(molar ligand).
All EC50 and IC50 values are reported as arithmetic means±standard error of mean of ‘n’ independent experiments. […] The IC50 was the concentration of the compound of the invention at which 50% inhibition of acetylcholine [^35S]GTPγS binding stimulation has been observed.
(In general: GTPγS resists hydrolysis and so accumulates on activated G proteins.)
As for `CCOC(=O)N1CC[C@H](N2CCC(N3C(=O)N[C@H]4CCCC[C@@H]43)CC2)C1`, the half-maximal effective concentration (EC50) – broadly, the concentration that produces a half-maximal response – worked out at 9.4 µM.

Molecule `CCOC(=O)N1CCC(N2CCC(N3C(=O)N[C@H]4CCCC[C@@H]43)CC2)CC1` returned a 50% effective concentration (EC50) of 0.33 µM.

Regarding `CC(C)OC(=O)N1CCC(N2CCC(N3C(=O)C[C@H]4CCCC[C@@H]43)CC2)CC1`, the EC50 stood at 4.2 µM.

`O=C(C1CC1)N1CCC(N2CCC(N3C(=O)N[C@@H]4CCCC[C@H]43)CC2)CC1` yielded a half-maximal effective concentration (EC50) greater than 30 µM.

For the molecule `O=C(C1CCCC1)N1CCC(N2CCC(N3C(=O)N[C@H]4CCCC[C@@H]43)CC2)CC1`, the EC50 was greater than 30 µM.

`O=C1CCCN1CCC(=O)N1CCC(N2CCC(N3C(=O)N[C@@H]4CCCC[C@H]43)CC2)CC1`: the EC50 is greater than 30 µM.

`O=C1CCCN1CCC(=O)N1CCC(N2CCC(N3C(=O)N[C@H]4CCCC[C@@H]43)CC2)CC1` showed an EC50 of 5.1 µM.

In turn, `CC(C)OC(=O)N1CCC(N2CCC(N3C(=O)N[C@H]4CCCC[C@@H]43)CC2)CC1` displayed an EC50 of 1.3 µM.

For `CN1C(=O)N(C2CCN(C3CCN(C(=O)C4CC4)CC3)CC2)[C@H]2CCCC[C@@H]21`, the 50% effective concentration (EC50) is greater than 30 µM.

`CC(C)OC(=O)N1CCC(N2CCC(N3C(=O)N[C@@H]4CCCC[C@@H]43)CC2)CC1` showed a half-maximal effective concentration (EC50) of 4.5 µM.

Regarding `COc1ccccc1C(=O)N1CCC(N2CCC(N3C(=O)N[C@@H]4CCCC[C@H]43)CC2)CC1`, the EC50 was greater than 30 µM.

`O=C(OCCF)N1CCC(N2CCC(N3C(=O)N[C@H]4CCCC[C@@H]43)CC2)CC1` displayed a 50% effective concentration (EC50) of 1.1 µM.
